{"source": "patent US10329243B2", "about": "“Biphenyl derivative and uses thereof” (XI'AN LIBANG PHARMACEUTICAL CO., LTD, priority 2015, dated 2019)", "format_in_all_cases": "in vivo, SD rats", "key": {"[1]": {"test_system": "rats with cerebral ischemic reperfusion injury", "description": "336 healthy male SD rats weighing 250-300 g, provided by the Experimental Animal Center of the Fourth Military Medical University, were randomly divided into 14 groups: the sham operation group, the ischemic reperfusion group, and Examples 1-12 groups (i.e., the Example groups).\n(§1) Rats were intraperitoneally injected with 10% chloral hydrate 350 mg/kg after anesthesia and opened up at the center of the neck in accordance with the Zea Longa modified method. The right common carotid artery was separated, and the right external carotid artery branches was ligated. A small opening was made at the distal end of the external carotid artery, and a previously prepared thread was inserted through the common carotid artery and the external carotid artery bifurcation into the internal carotid artery, till the anterior end of the middle cerebral artery, with an immersed depth of 18 to 19 mm. The thread was then secured, and the wound was sutured layer by layer. After the operation, the rats were placed in a clean incubator to wake up. […] The sham operation group, the ischemic reperfusion group, and the Example groups were prepared strictly according to the requirements of the cerebral ischemic reperfusion model, while in the sham operation group the thread was put only into the external carotid artery. The animals were allowed to eat and drink freely after waking up. After 2 h, the thread was pulled out to achieve reperfusion. The sham operation group, the ischemic reperfusion group, and the Example groups were administered intravenously the aqueous solution of the biphenyl derivatives in PEG400 at 40 mg/kg (40 mg/kg means that 40 mg of the test compound per kg of the body weight of rats) 30 min before reperfusion and 12 h after reperfusion, respectively. The sham operation group and the ischemic reperfusion group were injected with the same amount of blank PEG400 aqueous solution at the same time point.\nThe neurological impairment was scored in each group 24 h after reperfusion. The scoring was in accordance with the Longa 5-grade method: grade 0: no nerve injury symptom; grade 1: inability of stretching the contralateral forepaw; grade 2: circling to the opposite side; grade 3: tumbling to the opposite side; grade 4: no autonomous activity with loss of consciousness."}, "MDA [2]": {"test_system": "MDA", "test": "MDA determination, permanent cerebral ischemia model", "description": "as §1, with “the permanent cerebral ischemia model” for “the ischemic reperfusion”, “up.” for “up. After 2 h, the thread was pulled out to achieve reperfusion.”, “before insertion of thread” for “before reperfusion”, “after embolism,” for “after reperfusion,”\n(§2) 24 hours after the embolism, 8 rats in each group were sacrificed by decapitation, the brain was removed, rinsed with PBS (pH 7.4) at −20°i for 20 min, evenly sliced (with a thickness of 2 mm), stained in a 2% TTC solution at 37°% in the dark for 30 min, fixed in 10% formalin for 24 h, and photographs were taken to analyze the infarct volume. A mixture of femoral arterial and venous blood was drawn from another 8 rats in each group under anesthesia, placed in a low temperature centrifuge at 4° C., centrifuged at 3500 r/min for 20 min, and the supernatant was stored in a refrigerator at −20° C. ready for SOD and MDA detection. After the blood was drawn, a perfusion needle was insert through the apex to the ascending aorta, and saline at 4° C. was rapid infused until the effluent became clear, followed by 4% paraformaldehyde phosphate buffer perfusion for fixation; the brain was removed by craniotomy, and brain tissues 2 mm in front of and behind the optic chiasma were taken and fixed, dehydrated, rendered transparent, impregnated in wax, and embedded. Brain continuous coronary tissue pathological sections were consecutively cut for later use. The remaining 8 rats in each group were sacrificed, brains were removed, the ischemic brain hemispheres were immediately taken on an ice tray, and 10% brain tissue homogenate was prepared for the detection of IL-1β and TNF-α.\n(§3) SOD and MDA were determined strictly in accordance with instructions of the kit."}, "MDA [3]": {"test_system": "MDA", "test": "MDA determination, cerebral ischemic reperfusion MCAO model", "description": "as §1\nas §2, with “reperfusion,” for “the embolism,”, “−20° i” for “−20°i”\nas §3"}, "[4]": {"settings": "ischemic reperfusion MCAO rats, 40 mg/kg intravenously 30 min before and 12 h after reperfusion, scored 24 h after reperfusion, Longa grade 0-4"}, "[5]": {"settings": "permanent cerebral ischemia model rats, 40 mg/kg intravenously, serum, 24 h after the embolism"}, "[6]": {"settings": "ischemic reperfusion MCAO rats, 40 mg/kg intravenously 30 min before and 12 h after reperfusion, serum, 24 h after reperfusion"}}, "note": "Read-outs that look alike come from different tables or passages of the source."}
{"molecule": "3,3′,5,5′-tetraisopropylbiphenyl-4,4′-bis(oxymethylene phosphate) [Example 3 group]", "values": [{"measurement": "Average score of neurological impairment", "setting": "[1]; [4]", "value": 2.4}, {"measurement": "MDA CONTENT", "setting": "MDA [2]; rat, in vivo, iv, 40 mg/kg", "value": "5.07 ± 0.77", "unit": "mmol/mL"}, {"measurement": "MDA CONTENT", "setting": "MDA [3]; rat, in vivo, iv, 40 mg/kg", "value": "5.36 ± 0.47", "unit": "mmol/mL"}]}
{"molecule": "CC1=NN(c2ccccc2)C(=O)C1", "note": "[Edaravone injection, edaravone, reference compound]", "values": [{"measurement": "MDA CONTENT", "setting": "MDA [2]; permanent cerebral ischemia model rats, edaravone 3 mg/kg", "value": "5.98 ± 0.44", "unit": "mmol/mL"}, {"measurement": "MDA CONTENT", "setting": "MDA [3]; ischemic reperfusion rat model, edaravone 3 mg/kg", "value": "6.17 ± 0.54", "unit": "mmol/mL"}]}
{"molecule": "CC(=O)Oc1c(C(C)C)cc(-c2cc(C(C)C)c(O)c(C(C)C)c2)cc1C(C)C", "note": "[Example 1 group, 4′-hydroxy-3,3′,5,5′-tetraisopropylbiphenyl-4-acetate]", "values": [{"measurement": "Average score of neurological impairment", "setting": "[1]; [4]", "value": 2.0}, {"measurement": "MDA CONTENT", "setting": "MDA [2]; permanent cerebral ischemia model rats, 40 mg/kg intravenously, serum, 24 h after the embolism, 40 mg/kg", "value": "4.49 ± 0.59", "unit": "mmol/mL"}, {"measurement": "MDA CONTENT", "setting": "MDA [3]; ischemic reperfusion MCAO rats, 40 mg/kg intravenously 30 min before and 12 h after reperfusion, serum, 24 h after reperfusion, 40 mg/kg", "value": "4.74 ± 0.67", "unit": "mmol/mL"}]}
{"molecule": "CC(=O)Oc1c(C(C)C)cc(-c2cc(C(C)C)c(OC(C)=O)c(C(C)C)c2)cc1C(C)C", "note": "[Example 2 group, 3,3′,5,5′-tetraisopropylbiphenyl-4′-diacetate]", "values": [{"measurement": "Average score of neurological impairment", "setting": "[1]; [4]", "value": 2.1}, {"measurement": "MDA CONTENT", "setting": "MDA [2]; [5]", "value": "5.10 ± 0.82", "unit": "mmol/mL"}, {"measurement": "MDA CONTENT", "setting": "MDA [3]; [6]", "value": "5.44 ± 0.49", "unit": "mmol/mL"}]}
{"molecule": "CC(C)c1cc(-c2cc(C(C)C)c(OC(=O)CCC(=O)O)c(C(C)C)c2)cc(C(C)C)c1O", "note": "[Example 5 group, [4-(4′-hydroxy-3,3′,5,5′-tetraisopropylbiphenyl)oxy]-4-carbonyl butyric acid]", "values": [{"measurement": "Average score of neurological impairment", "setting": "[1]; [4]", "value": 2.2}, {"measurement": "MDA CONTENT", "setting": "MDA [2]; [5]", "value": "4.68 ± 0.42", "unit": "mmol/mL"}, {"measurement": "MDA CONTENT", "setting": "MDA [3]; [6]", "value": "4.47 ± 0.34", "unit": "mmol/mL"}]}
{"molecule": "CCCc1cc(-c2cc(CCC)c(O)c(C(C)C)c2)cc(C(C)C)c1O", "note": "[Example 6 group, 4,4′-dihydroxy-3,3′-diisopropyl-5,5′-dipropylbiphenyl]", "values": [{"measurement": "Average score of neurological impairment", "setting": "[1]; [4]", "value": 2.0}, {"measurement": "MDA CONTENT", "setting": "MDA [2]; [5]", "value": "4.31 ± 0.51", "unit": "mmol/mL"}, {"measurement": "MDA CONTENT", "setting": "MDA [3]; [6]", "value": "4.26 ± 0.41", "unit": "mmol/mL"}]}
{"molecule": "CCCc1cc(-c2cc(CCC)c(O)c(CCC)c2)cc(CCC)c1O", "note": "[Example 7 group, 4,4′-dihydroxy-3,3′,5,5′-tetrapropylbiphenyl]", "values": [{"measurement": "Average score of neurological impairment", "setting": "[1]; [4]", "value": 2.1}, {"measurement": "MDA CONTENT", "setting": "MDA [2]; [5]", "value": "4.42 ± 0.39", "unit": "mmol/mL"}, {"measurement": "MDA CONTENT", "setting": "MDA [3]; [6]", "value": "4.97 ± 0.50", "unit": "mmol/mL"}]}
{"molecule": "CC(C)c1cc(-c2cc(C(C)C)c(C(=O)O)c(C(C)C)c2)cc(C(C)C)c1O", "note": "[Example 8 group, 4′-hydroxy-3,3′,5,5′-tetraisopropylbiphenyl-4-carboxylic acid]", "values": [{"measurement": "Average score of neurological impairment", "setting": "[1]; [4]", "value": 2.3}, {"measurement": "MDA CONTENT", "setting": "MDA [2]; [5]", "value": "5.06 ± 0.28", "unit": "mmol/mL"}, {"measurement": "MDA CONTENT", "setting": "MDA [3]; [6]", "value": "5.12 ± 0.47", "unit": "mmol/mL"}]}
{"molecule": "CC(C)c1cc(-c2cc(C(C)C)c(Cl)c(C(C)C)c2)cc(C(C)C)c1O", "note": "[Example 9 group, 4-chloro-4′-hydroxy-3,3′,5,5′-tetraisopropylbiphenyl]", "values": [{"measurement": "Average score of neurological impairment", "setting": "[1]; rat, in vivo, iv, 40 mg/kg", "value": 2.4}, {"measurement": "MDA CONTENT", "setting": "MDA [2]; rat, in vivo, iv, 40 mg/kg", "value": "5.26 ± 0.49", "unit": "mmol/mL"}, {"measurement": "MDA CONTENT", "setting": "MDA [3]; rat, in vivo, iv, 40 mg/kg", "value": "5.61 ± 0.71", "unit": "mmol/mL"}]}
{"molecule": "CC(C)c1cc(-c2cc(C(C)C)c(OC=O)c(C(C)C)c2)cc(C(C)C)c1O", "note": "[Example 10 group]", "values": [{"measurement": "Average score of neurological impairment", "setting": "[1]; [4]", "value": 2.2}]}
{"molecule": "CC(C)c1cc(-c2cc(C(C)C)c(OC(=O)C(N)C(C)C)c(C(C)C)c2)cc(C(C)C)c1O", "note": "(centres unmarked) [Example 11 group, 4′-hydroxy-3,3′,5,5′-tetraisopropylbiphenyl-2-amino-3-methylbutyrate]", "values": [{"measurement": "Average score of neurological impairment", "setting": "[1]; [4]", "value": 2.2}, {"measurement": "MDA CONTENT", "setting": "MDA [3]; [6]", "value": "4.92 ± 0.52", "unit": "mmol/mL"}]}
{"molecule": "CC(=O)OC(C)Oc1c(C(C)C)cc(-c2cc(C(C)C)c(O)c(C(C)C)c2)cc1C(C)C", "note": "(centres unmarked) [Example 12 group, Ethyl 1-(4′-hydroxy-3,3′,5,5′-tetraisopropylbiphenyl-4-oxo)acetate]", "values": [{"measurement": "Average score of neurological impairment", "setting": "[1]; [4]", "value": 2.4}, {"measurement": "MDA CONTENT", "setting": "MDA [2]; [5]", "value": "6.03 ± 0.36", "unit": "mmol/mL"}, {"measurement": "MDA CONTENT", "setting": "MDA [3]; [6]", "value": "5.37 ± 0.55", "unit": "mmol/mL"}]}
